This note sets out measurements from ChEMBL document CHEMBL2439988, “Inhibition of human carbonic anhydrase isoforms I-XIV with sulfonamides incorporating fluorine and 1,3,5-triazine moieties” (Bioorg Med Chem, 2013).

In one assay the target is Carbonic anhydrase 9 (Homo sapiens, UniProt Q16790). The assay is described as follows: Inhibition of human recombinant carbonic anhydrase9 transmembrane isoform expressed in Escherichia coli BL21 preincubated for 15 mins by stopped-flow CO2 hydration assay.
The next assay addresses Carbonic anhydrase 7 (Homo sapiens, UniProt P43166). Put plainly: Inhibition of human recombinant carbonic anhydrase7 cytosolic isoform expressed in Escherichia coli BL21 preincubated for 15 mins by stopped-flow CO2 hydration assay.
In another assay the target is Carbonic anhydrase 13 (Homo sapiens, UniProt Q8N1Q1). The assay is described as follows: Inhibition of human recombinant carbonic anhydrase13 cytosolic isoform expressed in Escherichia coli BL21 preincubated for 15 mins by stopped-flow CO2 hydration assay.
In the next assay the target is Carbonic anhydrase 12 (Homo sapiens, UniProt O43570). The assay is described as follows: Inhibition of human recombinant carbonic anhydrase12 transmembrane isoform expressed in Escherichia coli BL21 preincubated for 15 mins by stopped-flow CO2 hydration assay.
In another assay the target is Carbonic anhydrase 2 (Homo sapiens, UniProt P00918). Put plainly: Inhibition of human recombinant carbonic anhydrase2 cytosolic isoform expressed in Escherichia coli BL21 preincubated for 15 mins by stopped-flow CO2 hydration assay.
The next assay addresses Carbonic anhydrase 1 (Homo sapiens, UniProt P00915). The assay is described as follows: Inhibition of human recombinant carbonic anhydrase1 cytosolic isoform expressed in Escherichia coli BL21 preincubated for 15 mins by stopped-flow CO2 hydration assay.
The target of another assay is Carbonic anhydrase 3 (Homo sapiens, UniProt P07451). The assay is described as follows: Inhibition of human recombinant carbonic anhydrase3 cytosolic isoform expressed in Escherichia coli BL21 preincubated for 15 mins by stopped-flow CO2 hydration assay.
The next assay has as its target Carbonic anhydrase 6 (Homo sapiens, UniProt P23280). The assay is described as follows: Inhibition of human recombinant carbonic anhydrase6 secreted isoform expressed in Escherichia coli BL21 preincubated for 15 mins by stopped-flow CO2 hydration assay.
The target of assay [1] is Carbonic anhydrase 5A, mitochondrial (Homo sapiens, UniProt P35218). The assay is described as follows: Inhibition of human recombinant carbonic anhydrase5A mitochondrial isoform expressed in Escherichia coli BL21 preincubated for 15 mins by stopped-flow CO2 hydration assay.
The next assay addresses Carbonic anhydrase 14 (Homo sapiens, UniProt Q9ULX7). The assay is described as follows: Inhibition of human recombinant carbonic anhydrase14 transmembrane isoform expressed in Escherichia coli BL21 preincubated for 15 mins by stopped-flow CO2 hydration assay.
Another assay deals with Carbonic anhydrase 4 (Homo sapiens, UniProt P22748). The assay is described as follows: Inhibition of human recombinant carbonic anhydrase4 membrane-bound isoform expressed in Escherichia coli BL21 preincubated for 15 mins by stopped-flow CO2 hydration assay.
Chain of Carbonic anhydrase 4 (P22748 whole entry, canonical isoform): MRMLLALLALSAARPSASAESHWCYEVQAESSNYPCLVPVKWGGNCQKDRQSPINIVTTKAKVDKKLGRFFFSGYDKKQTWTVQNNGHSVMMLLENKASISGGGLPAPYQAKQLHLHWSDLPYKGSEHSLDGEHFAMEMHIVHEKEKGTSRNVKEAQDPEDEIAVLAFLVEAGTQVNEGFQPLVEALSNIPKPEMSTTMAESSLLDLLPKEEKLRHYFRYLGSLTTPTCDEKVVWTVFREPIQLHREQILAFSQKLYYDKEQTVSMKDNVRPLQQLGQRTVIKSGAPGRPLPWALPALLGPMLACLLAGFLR

Chain of Carbonic anhydrase 1 (P00915 whole entry, canonical isoform): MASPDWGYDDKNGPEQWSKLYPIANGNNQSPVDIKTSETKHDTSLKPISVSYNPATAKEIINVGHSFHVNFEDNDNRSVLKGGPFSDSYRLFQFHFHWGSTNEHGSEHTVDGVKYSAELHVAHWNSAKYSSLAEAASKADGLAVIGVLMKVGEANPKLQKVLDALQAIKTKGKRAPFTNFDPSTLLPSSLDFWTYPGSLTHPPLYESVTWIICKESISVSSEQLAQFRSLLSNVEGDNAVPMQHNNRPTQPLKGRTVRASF
Chain of Carbonic anhydrase 14 (Q9ULX7 whole entry, canonical isoform): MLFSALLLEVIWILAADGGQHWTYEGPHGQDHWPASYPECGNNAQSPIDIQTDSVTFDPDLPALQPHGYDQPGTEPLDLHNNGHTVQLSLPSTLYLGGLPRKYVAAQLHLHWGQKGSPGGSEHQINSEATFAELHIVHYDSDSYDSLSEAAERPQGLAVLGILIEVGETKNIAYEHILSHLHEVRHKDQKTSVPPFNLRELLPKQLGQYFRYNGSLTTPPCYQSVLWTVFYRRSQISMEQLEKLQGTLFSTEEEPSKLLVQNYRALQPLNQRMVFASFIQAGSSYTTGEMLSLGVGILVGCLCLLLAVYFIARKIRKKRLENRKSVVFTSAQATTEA
Chain of Carbonic anhydrase 7 (P43166 whole entry, canonical isoform): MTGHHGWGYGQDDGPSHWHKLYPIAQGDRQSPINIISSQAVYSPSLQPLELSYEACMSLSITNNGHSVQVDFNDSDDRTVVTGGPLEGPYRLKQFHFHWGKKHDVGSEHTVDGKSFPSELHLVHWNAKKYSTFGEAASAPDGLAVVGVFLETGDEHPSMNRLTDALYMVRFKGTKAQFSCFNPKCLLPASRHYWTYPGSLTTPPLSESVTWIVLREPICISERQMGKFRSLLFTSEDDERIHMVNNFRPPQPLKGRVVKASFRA
Chain of Carbonic anhydrase 3 (P07451 whole entry, canonical isoform): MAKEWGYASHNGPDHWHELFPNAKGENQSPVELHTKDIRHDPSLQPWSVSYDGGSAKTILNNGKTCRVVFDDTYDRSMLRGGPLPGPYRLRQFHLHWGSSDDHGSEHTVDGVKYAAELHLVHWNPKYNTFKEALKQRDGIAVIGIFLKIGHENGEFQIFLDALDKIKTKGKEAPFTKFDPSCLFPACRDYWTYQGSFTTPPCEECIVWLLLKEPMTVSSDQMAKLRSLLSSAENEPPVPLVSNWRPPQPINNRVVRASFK
Chain of Carbonic anhydrase 5A, mitochondrial (P35218 whole entry, canonical isoform): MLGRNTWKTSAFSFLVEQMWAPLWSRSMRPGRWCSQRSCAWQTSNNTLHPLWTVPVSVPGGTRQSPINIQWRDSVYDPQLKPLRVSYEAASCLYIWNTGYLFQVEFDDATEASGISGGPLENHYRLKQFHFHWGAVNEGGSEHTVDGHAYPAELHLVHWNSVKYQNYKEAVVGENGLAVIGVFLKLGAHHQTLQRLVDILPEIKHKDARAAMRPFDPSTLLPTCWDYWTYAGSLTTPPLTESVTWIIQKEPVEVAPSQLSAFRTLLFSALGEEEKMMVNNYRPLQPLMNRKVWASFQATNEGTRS
Chain of Carbonic anhydrase 12 (O43570 whole entry, canonical isoform): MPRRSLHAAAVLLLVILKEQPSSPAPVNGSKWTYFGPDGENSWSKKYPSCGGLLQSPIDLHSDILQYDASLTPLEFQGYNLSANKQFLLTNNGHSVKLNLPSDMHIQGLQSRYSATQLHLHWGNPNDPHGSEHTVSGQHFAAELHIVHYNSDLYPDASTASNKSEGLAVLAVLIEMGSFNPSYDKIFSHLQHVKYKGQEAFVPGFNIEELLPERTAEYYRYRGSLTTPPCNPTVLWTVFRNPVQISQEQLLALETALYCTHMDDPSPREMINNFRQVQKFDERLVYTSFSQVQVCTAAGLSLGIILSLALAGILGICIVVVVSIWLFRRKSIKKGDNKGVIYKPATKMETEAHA
Chain of Carbonic anhydrase 6 (P23280 whole entry, canonical isoform): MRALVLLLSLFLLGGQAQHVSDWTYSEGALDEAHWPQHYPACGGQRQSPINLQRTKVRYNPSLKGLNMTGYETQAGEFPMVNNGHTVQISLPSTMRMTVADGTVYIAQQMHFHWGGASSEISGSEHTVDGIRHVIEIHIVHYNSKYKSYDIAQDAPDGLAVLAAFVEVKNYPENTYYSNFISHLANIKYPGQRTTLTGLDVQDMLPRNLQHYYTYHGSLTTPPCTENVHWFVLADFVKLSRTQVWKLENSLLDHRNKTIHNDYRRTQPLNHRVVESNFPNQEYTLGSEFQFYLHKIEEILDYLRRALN
Chain of Carbonic anhydrase 13 (Q8N1Q1 whole entry, canonical isoform): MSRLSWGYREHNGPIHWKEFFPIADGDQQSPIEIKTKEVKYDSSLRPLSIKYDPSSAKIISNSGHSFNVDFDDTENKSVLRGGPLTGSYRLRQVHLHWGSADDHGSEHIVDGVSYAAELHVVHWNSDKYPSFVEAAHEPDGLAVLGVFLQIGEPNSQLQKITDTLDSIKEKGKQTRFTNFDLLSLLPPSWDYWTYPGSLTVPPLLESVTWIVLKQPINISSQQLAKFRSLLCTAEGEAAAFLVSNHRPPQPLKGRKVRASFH

With `CNc1nc(F)nc(Nc2ccc(S(N)(=O)=O)cc2)n1`, the Ki turned out to be 0.228 µM at Carbonic anhydrase 9; 0.0067 µM on Carbonic anhydrase 7; 0.735 µM on Carbonic anhydrase 13; 0.0154 µM at Carbonic anhydrase 12; 0.0054 µM at Carbonic anhydrase 2; 0.09 µM on Carbonic anhydrase 1.
Take `NS(=O)(=O)c1ccc(Nc2nc(F)nc(F)n2)cc1`: the Ki at Carbonic anhydrase 7 stood at 0.0062 µM; on Carbonic anhydrase 13, 1.03 µM; on Carbonic anhydrase 12, 0.01 µM; at Carbonic anhydrase 2, 0.0049 µM; on Carbonic anhydrase 1, 0.088 µM.
Turning to `COC(=O)CNc1nc(F)nc(NCCc2ccc(S(N)(=O)=O)cc2)n1`, the inhibition constant (Ki) came to 6.86 µM at Carbonic anhydrase 3; 0.167 µM at Carbonic anhydrase 6; 0.65 µM in [1]; 0.199 µM at Carbonic anhydrase 9; 0.0065 µM at Carbonic anhydrase 7; 0.602 µM at Carbonic anhydrase 13. The inhibition constant (Ki) at Carbonic anhydrase 12 stood at 0.005 µM; at Carbonic anhydrase 14 it was 0.214 µM; on Carbonic anhydrase 4, 2.74 µM; on Carbonic anhydrase 2, 0.0056 µM; on Carbonic anhydrase 1, 0.0815 µM.
For the compound `NS(=O)(=O)c1ccc(CCNc2nc(F)nc(F)n2)cc1`, the Ki at Carbonic anhydrase 3 was 7.01 µM; at Carbonic anhydrase 6, 1.39 µM; in assay [1], above 10 µM; on Carbonic anhydrase 7, 0.0219 µM; on Carbonic anhydrase 13, 0.47 µM; on Carbonic anhydrase 12, 0.0046 µM. The Ki at Carbonic anhydrase 14 was 0.042 µM; on Carbonic anhydrase 4, 1.36 µM; on Carbonic anhydrase 2, 0.0071 µM; at Carbonic anhydrase 1 it was 0.203 µM.
Turning to `NS(=O)(=O)c1ccc(CCNc2nc(F)nc(NCC(=O)O)n2)cc1`, the inhibition constant Ki on Carbonic anhydrase 3 was 9.02 µM; on Carbonic anhydrase 6 it was 0.148 µM; in [1], 0.915 µM; at Carbonic anhydrase 9, 0.214 µM; on Carbonic anhydrase 7, 0.0083 µM; on Carbonic anhydrase 13, above 10 µM. Moreover, the Ki at Carbonic anhydrase 12 amounted to 0.0045 µM; on Carbonic anhydrase 14, 0.126 µM; at Carbonic anhydrase 4, 3.66 µM; at Carbonic anhydrase 2, 0.005 µM; at Carbonic anhydrase 1, 0.25 µM.
As to `CNc1nc(NC)nc(Nc2ccc(S(N)(=O)=O)cc2)n1`, the results for the Ki at Carbonic anhydrase 7 and at Carbonic anhydrase 13 were 0.045 µM and 0.921 µM, respectively.
In the case of `NS(=O)(=O)c1ccc(Nc2nc(F)nc(NCCO)n2)cc1`, the Ki is 0.208 µM at Carbonic anhydrase 9; 0.0085 µM at Carbonic anhydrase 7; above 10 µM at Carbonic anhydrase 13; 0.0175 µM at Carbonic anhydrase 12; 0.0055 µM at Carbonic anhydrase 2; 0.238 µM at Carbonic anhydrase 1.

By Ki is commonly meant a measure of affinity in units of concentration, obtained from inhibition or displacement.
